In PubChem BioAssay (NCI):
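96-well plates; 48 h exposure; 5 concentrations. Endpoints by linear interpolation between flanking doses. Not reached: highest tested concentration assigned. GI50: concentration for 50% inhibition of growth. TGI: total growth inhibition.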

Experiments:
Experiment in all cases: NCI tumour cell line growth inhibition, 48 h
IGROV1 ovarian = tested on: IGROV1 ovarian
RXF 393 renal = tested on: RXF 393 renal
OVCAR-4 ovarian = tested on: OVCAR-4 ovarian
COLO 205 colon = tested on: COLO 205 colon
HOP-92 NSCLC = tested on: HOP-92 NSCLC
HS 578T breast = tested on: HS 578T breast
SK-MEL-5 melanoma = tested on: SK-MEL-5 melanoma
KM12 colon = tested on: KM12 colon
OVCAR-3 ovarian = tested on: OVCAR-3 ovarian
SN12C renal = tested on: SN12C renal
HCT-116 colon = tested on: HCT-116 colon
NCI/ADR-RES ovarian = tested on: NCI/ADR-RES ovarian
UACC-257 melanoma = tested on: UACC-257 melanoma
LOX IMVI melanoma = tested on: LOX IMVI melanoma
MCF7 breast = tested on: MCF7 breast
M14 melanoma = tested on: M14 melanoma
786-0 renal = tested on: 786-0 renal
HT29 colon = tested on: HT29 colon
SK-MEL-2 melanoma = tested on: SK-MEL-2 melanoma
MOLT-4 leukemia = tested on: MOLT-4 leukemia
SK-OV-3 ovarian = tested on: SK-OV-3 ovarian
MALME-3M melanoma = tested on: MALME-3M melanoma
NCI-H23 lung = tested on: NCI-H23 lung
UACC-62 melanoma = tested on: UACC-62 melanoma
MDA-MB-435 = tested on: MDA-MB-435
HCC-2998 colon = tested on: HCC-2998 colon
SNB-75 CNS = tested on: SNB-75 CNS
K-562 leukemia = tested on: K-562 leukemia
HCT-15 colon = tested on: HCT-15 colon
SF-268 CNS = tested on: SF-268 CNS
SF-539 CNS = tested on: SF-539 CNS
ACHN renal = tested on: ACHN renal
NCI-H226 lung = tested on: NCI-H226 lung
EKVX NSCLC = tested on: EKVX NSCLC
RPMI-8226 leukemia = tested on: RPMI-8226 leukemia
HOP-62 NSCLC = tested on: HOP-62 NSCLC
SW-620 colon = tested on: SW-620 colon
UO-31 renal = tested on: UO-31 renal
DU-145 prostate = tested on: DU-145 prostate
HL-60(TB) leukemia = tested on: HL-60(TB) leukemia
OVCAR-5 ovarian = tested on: OVCAR-5 ovarian
SNB-19 CNS = tested on: SNB-19 CNS
BT-549 breast = tested on: BT-549 breast
TK-10 renal = tested on: TK-10 renal
NCI-H460 lung = tested on: NCI-H460 lung
NCI-H522 lung = tested on: NCI-H522 lung
U251 CNS = tested on: U251 CNS
PC-3 prostate = tested on: PC-3 prostate
A549 NSCLC = tested on: A549 NSCLC
MDA-MB-231 breast = tested on: MDA-MB-231 breast
SF-295 CNS = tested on: SF-295 CNS
CAKI-1 renal = tested on: CAKI-1 renal
SK-MEL-28 melanoma = tested on: SK-MEL-28 melanoma
A498 renal = tested on: A498 renal
T-47D breast = tested on: T-47D breast
OVCAR-8 ovarian = tested on: OVCAR-8 ovarian
CCRF-CEM leukemia = tested on: CCRF-CEM leukemia
SR leukemia = tested on: SR leukemia

Work on `C=CCCCCCCCCC(=O)[O][Sn]([CH2]CCC)([CH2]CCC)[CH2]CCC` yielded a GI50 (IGROV1 ovarian) of 148 nM, a TGI (IGROV1 ovarian) of 335 nM and a GI50 (RXF 393 renal) of 99.1 nM. For the same compound, the TGI (RXF 393 renal) was 255 nM, the GI50 (OVCAR-4 ovarian) was 120 nM and the TGI (OVCAR-4 ovarian) was 251 nM. For the same compound, the GI50 (COLO 205 colon) was 172 nM, the TGI (COLO 205 colon) was 371 nM and the GI50 (HOP-92 NSCLC) was 75 nM. For the same compound, the TGI (HOP-92 NSCLC) was 240 nM, the GI50 (HS 578T breast) was 166 nM and the TGI (HS 578T breast) was 493 nM. It also gave a GI50 (SK-MEL-5 melanoma) of 148 nM, a TGI (SK-MEL-5 melanoma) of 282 nM and a GI50 (KM12 colon) of 145 nM. The TGI (KM12 colon) was 300 nM, the GI50 (OVCAR-3 ovarian) was 147 nM and the TGI (OVCAR-3 ovarian) was 285 nM. The GI50 (SN12C renal) was 153 nM, the TGI (SN12C renal) was 331 nM and the GI50 (HCT-116 colon) was 133 nM. It also gave a TGI (HCT-116 colon) of 262 nM, a GI50 (NCI/ADR-RES ovarian) of 163 nM and a TGI (NCI/ADR-RES ovarian) of 320 nM. The GI50 (UACC-257 melanoma) was 144 nM, the TGI (UACC-257 melanoma) was 291 nM and the GI50 (LOX IMVI melanoma) was 138 nM. For the same compound, the TGI (LOX IMVI melanoma) was 278 nM, the GI50 (MCF7 breast) was 137 nM and the TGI (MCF7 breast) was 272 nM. It also gave a GI50 (M14 melanoma) of 156 nM, a TGI (M14 melanoma) of 299 nM and a GI50 (786-0 renal) of 143 nM. The TGI (786-0 renal) was 275 nM, the GI50 (HT29 colon) was 154 nM and the TGI (HT29 colon) was 332 nM. For the same compound, the GI50 (SK-MEL-2 melanoma) was 189 nM, the TGI (SK-MEL-2 melanoma) was 377 nM and the GI50 (MOLT-4 leukemia) was 228 nM. It also gave a TGI (MOLT-4 leukemia) of 833 nM, a GI50 (SK-OV-3 ovarian) of 149 nM and a TGI (SK-OV-3 ovarian) of 306 nM. For the same compound, the GI50 (MALME-3M melanoma) was 135 nM, the TGI (MALME-3M melanoma) was 287 nM and the GI50 (NCI-H23 lung) was 115 nM. The TGI (NCI-H23 lung) was 254 nM, the GI50 (UACC-62 melanoma) was 168 nM and the TGI (UACC-62 melanoma) was 349 nM. For the same compound, the GI50 (MDA-MB-435) was 153 nM, the TGI (MDA-MB-435) was 319 nM and the GI50 (HCC-2998 colon) was 156 nM. It also gave a TGI (HCC-2998 colon) of 291 nM, a GI50 (SNB-75 CNS) of 134 nM and a TGI (SNB-75 CNS) of 326 nM. It also gave a GI50 (K-562 leukemia) of 181 nM, a TGI (K-562 leukemia) of 457 nM and a GI50 (HCT-15 colon) of 158 nM. It also gave a TGI (HCT-15 colon) of 348 nM, a GI50 (SF-268 CNS) of 149 nM and a TGI (SF-268 CNS) of 309 nM. It also gave a GI50 (SF-539 CNS) of 169 nM, a TGI (SF-539 CNS) of 332 nM and a GI50 (ACHN renal) of 164 nM. It also gave a TGI (ACHN renal) of 310 nM, a GI50 (NCI-H226 lung) of 170 nM and a TGI (NCI-H226 lung) of 325 nM. The GI50 (EKVX NSCLC) was 131 nM, the TGI (EKVX NSCLC) was 320 nM and the GI50 (RPMI-8226 leukemia) was 35 nM. The TGI (RPMI-8226 leukemia) was 278 nM, the GI50 (HOP-62 NSCLC) was 172 nM and the TGI (HOP-62 NSCLC) was 346 nM. It also gave a GI50 (SW-620 colon) of 162 nM, a TGI (SW-620 colon) of 332 nM and a GI50 (UO-31 renal) of 132 nM. It also gave a TGI (UO-31 renal) of 276 nM, a GI50 (DU-145 prostate) of 150 nM and a TGI (DU-145 prostate) of 290 nM. It also gave a GI50 (HL-60(TB) leukemia) of 169 nM, a TGI (HL-60(TB) leukemia) of 464 nM and a GI50 (OVCAR-5 ovarian) of 128 nM. For the same compound, the TGI (OVCAR-5 ovarian) was 297 nM, the GI50 (SNB-19 CNS) was 198 nM and the TGI (SNB-19 CNS) was 384 nM. The GI50 (BT-549 breast) was 140 nM, the TGI (BT-549 breast) was 277 nM and the GI50 (TK-10 renal) was 165 nM. It also gave a TGI (TK-10 renal) of 311 nM, a GI50 (NCI-H460 lung) of 152 nM and a TGI (NCI-H460 lung) of 312 nM. It also gave a GI50 (NCI-H522 lung) of 141 nM, a TGI (NCI-H522 lung) of 296 nM and a GI50 (U251 CNS) of 165 nM. The TGI (U251 CNS) was 318 nM, the GI50 (PC-3 prostate) was 187 nM and the TGI (PC-3 prostate) was 409 nM. For the same compound, the GI50 (A549 NSCLC) was 164 nM, the TGI (A549 NSCLC) was 322 nM and the GI50 (MDA-MB-231 breast) was 140 nM. It also gave a TGI (MDA-MB-231 breast) of 304 nM, a GI50 (SF-295 CNS) of 159 nM and a TGI (SF-295 CNS) of 337 nM. For the same compound, the GI50 (CAKI-1 renal) was 112 nM, the TGI (CAKI-1 renal) was 300 nM and the GI50 (SK-MEL-28 melanoma) was 157 nM. For the same compound, the TGI (SK-MEL-28 melanoma) was 296 nM, the GI50 (A498 renal) was 140 nM and the TGI (A498 renal) was 276 nM.
`COc1ccc(-c2c(C#N)c(N)nc3c2CCS(=O)(=O)c2ccccc2-3)cc1` gave a TGI (IGROV1 ovarian) greater than 100000 nM, a TGI (OVCAR-4 ovarian) greater than 100000 nM and a TGI (COLO 205 colon) greater than 100000 nM. For the same compound, the TGI (HOP-92 NSCLC) was greater than 100000 nM, the TGI (HS 578T breast) was greater than 100000 nM and the TGI (SK-MEL-5 melanoma) was greater than 100000 nM. The TGI (KM12 colon) was greater than 100000 nM, the TGI (SN12C renal) was greater than 100000 nM and the TGI (HCT-116 colon) was greater than 100000 nM. For the same compound, the TGI (NCI/ADR-RES ovarian) was greater than 100000 nM, the TGI (UACC-257 melanoma) was greater than 100000 nM and the TGI (LOX IMVI melanoma) was greater than 100000 nM. It also gave a TGI (T-47D breast) greater than 100000 nM, a TGI (786-0 renal) greater than 100000 nM and a TGI (HT29 colon) greater than 100000 nM. For the same compound, the TGI (SK-MEL-2 melanoma) was greater than 100000 nM, the TGI (MALME-3M melanoma) was greater than 100000 nM and the TGI (NCI-H23 lung) was greater than 100000 nM. The TGI (UACC-62 melanoma) was greater than 100000 nM, the TGI (MDA-MB-435) was greater than 100000 nM and the TGI (OVCAR-8 ovarian) was greater than 100000 nM. For the same compound, the TGI (HCC-2998 colon) was greater than 100000 nM, the TGI (SNB-75 CNS) was greater than 100000 nM and the TGI (K-562 leukemia) was greater than 100000 nM. For the same compound, the TGI (HCT-15 colon) was greater than 100000 nM, the TGI (SF-268 CNS) was greater than 100000 nM and the TGI (CCRF-CEM leukemia) was greater than 100000 nM. It also gave a TGI (ACHN renal) greater than 100000 nM, a TGI (NCI-H226 lung) greater than 100000 nM and a TGI (SW-620 colon) greater than 100000 nM. For the same compound, the TGI (UO-31 renal) was greater than 100000 nM, the TGI (DU-145 prostate) was greater than 100000 nM and the TGI (HL-60(TB) leukemia) was greater than 100000 nM. The TGI (SNB-19 CNS) was greater than 100000 nM, the TGI (BT-549 breast) was greater than 100000 nM and the TGI (TK-10 renal) was greater than 100000 nM. The TGI (NCI-H460 lung) was greater than 100000 nM, the TGI (NCI-H522 lung) was greater than 100000 nM and the TGI (U251 CNS) was greater than 100000 nM. For the same compound, the TGI (PC-3 prostate) was greater than 100000 nM, the TGI (A549 NSCLC) was greater than 100000 nM and the TGI (MDA-MB-231 breast) was greater than 100000 nM. For the same compound, the TGI (SR leukemia) was greater than 100000 nM, the TGI (CAKI-1 renal) was greater than 100000 nM and the TGI (SK-MEL-28 melanoma) was greater than 100000 nM. For the same compound, the TGI (A498 renal) was greater than 100000 nM.
